Measured values: patent publication US11292803B2, “Bioreducible N-oxide-based probes for imaging of hypoxia” (THE BOARD OF TRUSTEES OF THE UNIVERSITY OF ILLINOIS, priority 2018, dated 2022)

Test system: ischemic hindlimb tissue
Test: In vivo fluorescence imaging of hindlimb ischemia model
Parameters: species or system BALB/c mice
Settings: intramuscular 50 μL, 50 μM; over 1 hour
Protocol: To visualize the response of HyP-1 in a model of rapidly developing hypoxia, a murine hindlimb ischemia model of peripheral artery disease was employed. Ischemia was induced in the right hindlimb of BALB/c mice via ligation of the femoral artery. […] After a 1-hour recovery period, HyP-1 (50 μL, 50 μM) was administered via intramuscular injection into both hindlimbs of the mouse. To visualize the time-dependent response of HyP-1 in the ischemic and non-ischemic tissue, ratiometric fluorescence imaging was performed over the course of 1 hour immediately following injection. […]
All in vivo imaging experiments were performed with the approval of the Institutional Animal Care and Use Committee of the University of Illinois at Urbana-Champaign, following the principles outlined by the American Physiological Society on research animal use. […] Animals that underwent unsuccessful surgery as determined by laser Doppler perfusion imaging were excluded from analysis.
Images were obtained using epi-fluorescence with excitation filters of 675 and 745 and corresponding emission filters of 720 and 800, respectively. […] ROIs of equal area were drawn around signals, and the total radiant efficiency in each ROI was determined. Ratiometric signal was calculated by determining the ratio of radiant efficiency corresponding to 800 nm and 720 nm emissions.

CC[N+]([O-])(CC)c1ccc(-c2cc(-c3ccccc3)c3n2[B-](F)(F)[N+]2=C(c4ccc(OC)cc4)C=C(c4ccccc4)C2=N3)cc1 [HyP-1, 4-(5,5-difluoro-7-(4-methoxyphenyl)-1,9-diphenyl-5H-5λ^4,6λ^4-dipyrrolo[1,2-c:2′,1′-f][1,3,5,2]triazaborinin-3-yl)-N,N-diethylaniline oxide]
ratiometric signal, ischemic tissue versus control: 3 fold
